In ChEMBL document CHEMBL1201862, “PubChem BioAssay data set” (2004):
Blank lines part the entries; values can stand above or below the molecule they belong to. The source made the active and inactive calls.

Legend:
Vero = test: viability loss in Vero cells – cell-based, plate reader, cherry-pick samples, cytotoxicity control, dose response (AID 687020); type: functional; settings: Chlorocebus sabaeus
[1] = molecular target: T1, Mitochondrial peptide methionine sulfoxide reductase (Bos taurus, UniProt P54149); test: Absorbance-based biochemical high throughput dose response assay for activators of Methionine sulfoxide reductase A (MsrA).; type: functional
T1 sequence (P54149 whole entry): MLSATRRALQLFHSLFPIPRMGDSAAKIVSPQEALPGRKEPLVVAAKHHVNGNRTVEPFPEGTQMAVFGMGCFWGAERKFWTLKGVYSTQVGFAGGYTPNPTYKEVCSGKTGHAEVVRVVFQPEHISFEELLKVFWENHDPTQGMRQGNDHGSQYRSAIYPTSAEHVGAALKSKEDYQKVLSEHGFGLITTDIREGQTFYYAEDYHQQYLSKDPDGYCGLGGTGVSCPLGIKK

[2] = molecular target: T2, Tyrosyl-DNA phosphodiesterase 2 (Homo sapiens, UniProt O95551); test: potency against TDP2 phosphodiesterase activity – biochemical, epi absorbance, IC50, dose response (AID 743297)
T2 sequence (O95551 whole entry): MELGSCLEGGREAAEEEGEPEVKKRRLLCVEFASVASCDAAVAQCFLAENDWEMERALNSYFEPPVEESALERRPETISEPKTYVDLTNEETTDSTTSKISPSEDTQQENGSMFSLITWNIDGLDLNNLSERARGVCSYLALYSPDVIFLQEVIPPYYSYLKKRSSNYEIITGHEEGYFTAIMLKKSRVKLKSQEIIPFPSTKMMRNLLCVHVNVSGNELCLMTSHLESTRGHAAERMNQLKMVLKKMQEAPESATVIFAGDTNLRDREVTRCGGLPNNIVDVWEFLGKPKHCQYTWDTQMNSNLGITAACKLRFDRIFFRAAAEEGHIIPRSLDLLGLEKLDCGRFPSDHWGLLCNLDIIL

Caspase-3 = molecular target: T3, Caspase-3 (Homo sapiens, UniProt P42574); type: functional;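 further: Dose-response selectivity test against caspase-3 for candidate inhibitors of sentrin-specific proteases (SENPs)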
T3 sequence (P42574 whole entry): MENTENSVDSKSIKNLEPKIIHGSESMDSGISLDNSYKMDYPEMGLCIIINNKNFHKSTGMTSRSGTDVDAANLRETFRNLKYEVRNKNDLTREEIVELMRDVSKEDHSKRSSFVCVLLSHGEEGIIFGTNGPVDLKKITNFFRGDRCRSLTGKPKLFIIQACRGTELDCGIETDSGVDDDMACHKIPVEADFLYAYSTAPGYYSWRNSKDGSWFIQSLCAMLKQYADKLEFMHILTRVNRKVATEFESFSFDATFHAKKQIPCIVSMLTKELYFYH

[3] = molecular target: T4, Sentrin-specific protease 6 (Homo sapiens, UniProt Q9GZR1); type: functional;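 further: Luminescence-based dose-response confirmatory assay of SENP6 inhibition, following up an ultra-high-throughput screen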
T4 sequence (Q9GZR1 whole entry): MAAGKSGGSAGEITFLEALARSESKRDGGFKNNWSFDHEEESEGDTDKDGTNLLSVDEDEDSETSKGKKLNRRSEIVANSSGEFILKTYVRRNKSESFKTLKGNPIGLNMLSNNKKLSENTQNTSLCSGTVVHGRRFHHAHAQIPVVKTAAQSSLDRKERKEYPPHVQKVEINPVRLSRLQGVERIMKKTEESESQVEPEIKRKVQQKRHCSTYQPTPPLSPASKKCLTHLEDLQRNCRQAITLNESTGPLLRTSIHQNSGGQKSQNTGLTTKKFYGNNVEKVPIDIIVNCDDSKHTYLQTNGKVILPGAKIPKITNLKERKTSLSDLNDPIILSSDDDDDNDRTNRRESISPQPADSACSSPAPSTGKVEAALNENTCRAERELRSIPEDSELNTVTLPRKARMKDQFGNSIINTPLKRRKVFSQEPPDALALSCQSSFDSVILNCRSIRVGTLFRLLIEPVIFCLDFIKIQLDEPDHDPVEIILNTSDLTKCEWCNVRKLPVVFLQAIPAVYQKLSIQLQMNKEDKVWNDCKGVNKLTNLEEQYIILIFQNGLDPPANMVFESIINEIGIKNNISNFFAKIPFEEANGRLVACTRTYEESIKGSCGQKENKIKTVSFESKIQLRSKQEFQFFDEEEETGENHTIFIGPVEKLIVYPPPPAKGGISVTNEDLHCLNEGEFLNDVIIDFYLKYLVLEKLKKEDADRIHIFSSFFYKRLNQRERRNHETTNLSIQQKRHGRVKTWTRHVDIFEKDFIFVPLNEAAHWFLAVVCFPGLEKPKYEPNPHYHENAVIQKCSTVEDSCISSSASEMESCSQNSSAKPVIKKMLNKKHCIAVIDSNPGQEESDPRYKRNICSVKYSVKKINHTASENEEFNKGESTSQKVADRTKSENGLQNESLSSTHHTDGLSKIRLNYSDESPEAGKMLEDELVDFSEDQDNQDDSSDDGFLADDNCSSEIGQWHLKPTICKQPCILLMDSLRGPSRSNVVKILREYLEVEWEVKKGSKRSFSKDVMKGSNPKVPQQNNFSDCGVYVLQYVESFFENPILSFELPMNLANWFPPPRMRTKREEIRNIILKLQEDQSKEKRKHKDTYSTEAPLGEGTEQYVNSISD

[4] = molecular target: T5, Sentrin-specific protease 7 (Homo sapiens, UniProt Q9BQF6); type: functional;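 further: Luminescence-based dose-response confirmation of ultra-high-throughput screening hits, measuring inhibition of SENP7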
T5 sequence (Q9BQF6 whole entry): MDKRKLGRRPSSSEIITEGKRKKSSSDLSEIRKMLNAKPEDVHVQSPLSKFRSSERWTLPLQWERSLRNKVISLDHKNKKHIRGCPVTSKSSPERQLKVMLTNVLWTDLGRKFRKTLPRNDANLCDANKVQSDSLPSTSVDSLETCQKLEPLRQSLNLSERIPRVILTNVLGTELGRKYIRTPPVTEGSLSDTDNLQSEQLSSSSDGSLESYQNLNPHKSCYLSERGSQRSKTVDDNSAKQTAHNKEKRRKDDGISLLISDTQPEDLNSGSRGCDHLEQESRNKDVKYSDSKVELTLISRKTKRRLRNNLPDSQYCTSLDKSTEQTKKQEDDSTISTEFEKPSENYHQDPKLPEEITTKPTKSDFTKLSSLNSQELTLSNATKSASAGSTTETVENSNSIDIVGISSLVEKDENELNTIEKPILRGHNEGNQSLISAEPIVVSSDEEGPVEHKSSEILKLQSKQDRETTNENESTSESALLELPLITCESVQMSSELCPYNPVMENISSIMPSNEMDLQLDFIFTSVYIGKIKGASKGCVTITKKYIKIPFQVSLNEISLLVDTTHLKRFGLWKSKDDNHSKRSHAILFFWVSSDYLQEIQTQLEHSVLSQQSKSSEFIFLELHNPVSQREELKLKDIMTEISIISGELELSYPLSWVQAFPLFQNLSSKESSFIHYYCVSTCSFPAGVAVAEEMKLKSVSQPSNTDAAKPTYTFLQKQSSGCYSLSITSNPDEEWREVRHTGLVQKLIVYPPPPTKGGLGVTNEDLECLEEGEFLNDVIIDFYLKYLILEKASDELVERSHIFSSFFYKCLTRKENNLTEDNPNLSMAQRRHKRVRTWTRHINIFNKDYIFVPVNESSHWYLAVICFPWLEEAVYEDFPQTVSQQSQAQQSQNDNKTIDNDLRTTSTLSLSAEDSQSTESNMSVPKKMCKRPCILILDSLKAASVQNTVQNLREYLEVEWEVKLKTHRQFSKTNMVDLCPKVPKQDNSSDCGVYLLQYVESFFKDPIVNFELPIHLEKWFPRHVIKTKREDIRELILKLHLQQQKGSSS

Caspase-6 = molecular target: T6, Caspase-6 (Homo sapiens, UniProt P55212); test: inhibition of CASP6 peptide cleavage – biochemical, VEID-R110 fluorescence, cherry-pick, dose response (AID 720632)
T6 sequence (P55212 whole entry): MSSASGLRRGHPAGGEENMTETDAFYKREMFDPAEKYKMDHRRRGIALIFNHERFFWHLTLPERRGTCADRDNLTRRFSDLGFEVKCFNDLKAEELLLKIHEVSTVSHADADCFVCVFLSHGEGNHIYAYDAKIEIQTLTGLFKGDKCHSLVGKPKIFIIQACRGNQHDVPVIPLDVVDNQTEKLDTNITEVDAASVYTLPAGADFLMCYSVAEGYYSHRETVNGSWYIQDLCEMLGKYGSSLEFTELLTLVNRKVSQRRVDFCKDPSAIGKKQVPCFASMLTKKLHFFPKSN

[5] = molecular target: T7, Sentrin-specific protease 8 (Homo sapiens, UniProt Q96LD8); type: functional;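 further: luminescence read-out of SENP8 inhibition, dose-response confirmation following an ultra-high-throughput screen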
T7 sequence (Q96LD8 whole entry): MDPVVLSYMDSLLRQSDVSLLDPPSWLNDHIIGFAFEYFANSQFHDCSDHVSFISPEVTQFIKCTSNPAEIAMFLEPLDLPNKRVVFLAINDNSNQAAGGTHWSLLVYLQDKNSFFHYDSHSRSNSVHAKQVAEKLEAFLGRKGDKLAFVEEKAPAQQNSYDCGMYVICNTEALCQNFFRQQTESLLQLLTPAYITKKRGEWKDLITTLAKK

[6] = Counterscreen for inhibitors of Trypanosoma brucei methionyl tRNA synthetase (MetRS): Luminescence-based cell-based high throughput dose response assay to identify compounds that are cytotoxic to Jurkat human T lymphocyte cells.; type: functional
[7] = molecular target: T8, Methionyl-tRNA synthetase, putative (Trypanosoma brucei brucei, UniProt Q38C91); type: functional, Trypanosoma brucei brucei strain 927/4 GUTat10.1
T8 sequence (Q38C91 whole entry): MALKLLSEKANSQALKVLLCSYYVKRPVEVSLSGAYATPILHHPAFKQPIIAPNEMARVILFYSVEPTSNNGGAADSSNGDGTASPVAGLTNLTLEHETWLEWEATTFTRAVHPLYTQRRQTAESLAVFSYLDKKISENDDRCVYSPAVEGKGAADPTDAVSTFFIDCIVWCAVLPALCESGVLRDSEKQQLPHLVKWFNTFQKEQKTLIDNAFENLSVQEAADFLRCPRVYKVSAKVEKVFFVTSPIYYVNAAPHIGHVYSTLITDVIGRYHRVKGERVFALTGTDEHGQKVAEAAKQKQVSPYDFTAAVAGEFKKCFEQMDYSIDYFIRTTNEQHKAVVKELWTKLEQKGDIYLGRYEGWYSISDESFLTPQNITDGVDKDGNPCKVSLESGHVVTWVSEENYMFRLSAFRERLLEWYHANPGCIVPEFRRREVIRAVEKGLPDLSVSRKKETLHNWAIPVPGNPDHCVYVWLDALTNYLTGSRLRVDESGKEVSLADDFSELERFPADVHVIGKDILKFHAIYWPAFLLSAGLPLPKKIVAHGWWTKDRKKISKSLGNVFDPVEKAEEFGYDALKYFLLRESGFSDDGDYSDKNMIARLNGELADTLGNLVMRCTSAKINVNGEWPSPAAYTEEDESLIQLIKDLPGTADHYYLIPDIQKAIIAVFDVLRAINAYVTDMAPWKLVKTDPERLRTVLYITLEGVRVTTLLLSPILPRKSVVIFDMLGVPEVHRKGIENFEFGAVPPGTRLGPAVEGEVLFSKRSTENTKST

[8] = molecular target: T8, Methionyl-tRNA synthetase, putative; type: functional, Trypanosoma brucei brucei strain 927/4 GUTat10.1; remark: listed apart in the source
[9] = molecular target: Nuclear receptor subfamily 5 group A member 2 (Homo sapiens, UniProt O00482); type: functional, cell-based;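 further: HEK293T cells transfected with LRH-1 and a StAR promoter luciferase reporter; potency for inhibitors that lower LRH-1 driven reporter light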
[10] = nonselective StAR promoter luciferase inhibitors – cell-based, luminescence, luciferase reporter, counter-screen for LRH-1 inverse agonist project, dose response (AID 651969); type: functional
Steroidogenic factor 1 = Steroidogenic factor 1 (Homo sapiens, UniProt Q13285); test: Counterscreen for inverse agonists of the liver receptor homolog-1 (LRH-1; NR5A2): Luminescence-based cell-based high throughput dose response assay to identify inverse agonists of the Steroidogenic Factor 1 Nuclear Receptor (SF1; NR5A1).; type: functional
[11] = molecular target: T9, Carboxy-terminal domain RNA polymerase II polypeptide A small phosphatase 1 (Homo sapiens, UniProt Q9GZU7); test: CTDSP1 inhibitors, concentration-response, biochemical, absorbance readout, ultra-high-throughput screen actives (AID 540297); type: functional
T9 sequence (Q9GZU7 whole entry): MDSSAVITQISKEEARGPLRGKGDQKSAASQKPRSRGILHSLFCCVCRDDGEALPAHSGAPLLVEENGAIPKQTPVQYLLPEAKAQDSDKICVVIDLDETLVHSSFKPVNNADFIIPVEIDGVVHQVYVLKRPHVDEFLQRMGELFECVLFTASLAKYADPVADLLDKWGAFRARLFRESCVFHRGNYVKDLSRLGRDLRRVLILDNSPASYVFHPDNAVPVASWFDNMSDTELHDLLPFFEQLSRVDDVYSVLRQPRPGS

[12] = molecular target: T10, Small ubiquitin-related modifier 1 (Homo sapiens, UniProt P63165); test: SUMO1 protein interaction blockers, potency – biochemical, fluorescence polarization, uHTS hits, dose response (AID 624382); type: functional; settings: read-out: IC50_Mean
[13] = molecular target: T10, Small ubiquitin-related modifier 1; test: SUMO1 protein-protein binding blockers, potency – biochemical, FRET, dose response (AID 624383); type: functional; settings: read-out: IC50_Mean

Steroidogenic factor 1, sequence (Q13285 whole entry, the tested form may be a part): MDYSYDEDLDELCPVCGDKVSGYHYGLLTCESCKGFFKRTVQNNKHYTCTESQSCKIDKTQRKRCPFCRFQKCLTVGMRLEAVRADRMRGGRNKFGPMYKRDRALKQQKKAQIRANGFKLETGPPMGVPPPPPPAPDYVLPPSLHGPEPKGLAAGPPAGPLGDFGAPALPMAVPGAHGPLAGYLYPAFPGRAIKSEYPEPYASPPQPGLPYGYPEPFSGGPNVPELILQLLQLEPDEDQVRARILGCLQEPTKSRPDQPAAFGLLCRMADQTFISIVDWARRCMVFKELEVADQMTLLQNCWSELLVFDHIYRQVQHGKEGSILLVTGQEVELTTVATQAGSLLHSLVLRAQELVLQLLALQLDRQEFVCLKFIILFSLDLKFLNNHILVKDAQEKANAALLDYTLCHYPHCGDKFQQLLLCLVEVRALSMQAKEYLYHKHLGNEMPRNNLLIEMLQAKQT
Nuclear receptor subfamily 5 group A member 2, sequence (O00482 whole entry): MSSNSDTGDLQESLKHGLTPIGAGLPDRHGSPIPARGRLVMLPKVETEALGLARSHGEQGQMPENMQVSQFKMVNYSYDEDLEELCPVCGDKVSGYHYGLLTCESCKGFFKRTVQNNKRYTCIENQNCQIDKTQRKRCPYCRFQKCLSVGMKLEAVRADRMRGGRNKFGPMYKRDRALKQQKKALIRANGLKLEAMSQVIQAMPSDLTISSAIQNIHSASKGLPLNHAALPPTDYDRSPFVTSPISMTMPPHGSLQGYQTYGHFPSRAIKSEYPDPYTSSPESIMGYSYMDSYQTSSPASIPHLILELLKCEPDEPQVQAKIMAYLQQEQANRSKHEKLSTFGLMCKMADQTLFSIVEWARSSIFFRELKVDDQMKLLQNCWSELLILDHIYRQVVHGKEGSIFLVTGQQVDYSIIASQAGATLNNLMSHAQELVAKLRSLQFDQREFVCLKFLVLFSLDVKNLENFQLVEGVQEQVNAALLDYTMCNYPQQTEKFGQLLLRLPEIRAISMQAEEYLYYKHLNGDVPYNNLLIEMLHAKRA
T10 sequence (P63165 whole entry): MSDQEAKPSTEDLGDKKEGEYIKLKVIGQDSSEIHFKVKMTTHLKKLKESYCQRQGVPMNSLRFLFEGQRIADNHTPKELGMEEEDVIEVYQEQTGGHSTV

Compound: COc1ccc(N2CCN(c3cc(C(=O)NC4CCCCC4)ncn3)CC2)cc1OC
AC50 (Vero): 29.7 µM (active)

EC50 [1]: 22.9 µM (inactive) | IC50 [2]: 85.5 µM (inactive) | IC50 (Caspase-3): 13.7 µM (active) | IC50 [3]: 6.5 µM (active) | IC50 [4]: 8.12 µM (active) | AC50 (Caspase-6): 8.44 µM (active)
Compound: CC1CCCC(NC(=O)COC(=O)c2ccc([N+](=O)[O-])s2)C1C (centres undefined)
IC50 [5]: 5.63 µM (active)

Compound: O=C(CSc1nc2ccc[nH]c-2n1)Nc1ccc2c(c1)OCO2
IC50 [6]: 83.3 µM (inactive)

Compound: O=C(NCc1nc2ccccc2[nH]1)C1=C[C@H](C2CCCCC2)C[C@H](OCCCCO)O1
IC50 [6]: 28.8 µM (inactive) | IC50 [7]: 5.64 µM (active) | IC50 [8]: 3.14 µM (active)

IC50 [7]: 81.6 µM (inactive) | IC50 [8]: 30.3 µM (inactive)
Compound: O=C(CSc1nc2ncccc2[nH]1)Nc1ccc2c(c1)OCO2

Compound: CCN1CCN(S(=O)(=O)c2ccc(Cl)c(C(=O)N(C)CCOc3ccc(Cl)cc3)c2)CC1
AC50 (Vero): 21.1 µM (active)

Compound: COc1ccc(S(=O)(=O)Nc2ccc3c(c2)n(C)c(=O)n3C)cc1F
IC50 [9]: 8.04 µM (active) | IC50 [10]: 34.5 µM (inactive) | IC50 (Steroidogenic factor 1): 9.64 µM (active)

Compound: COc1ccc(Nc2nnc(-c3ccncc3)s2)cc1Cl
IC50 [11]: 4.85 µM (active) | IC50 [12]: > 66.6 µM (inactive) | IC50 [13]: 6.3 µM (active)

Compound: COCC(=O)NC1CCN(CC(=O)Nc2ccc(OC)cc2[N+](=O)[O-])CC1
IC50 [9]: 3.9 µM (active) | IC50 [10]: 35.9 µM (inactive) | IC50 (Steroidogenic factor 1): 1.37 µM (active)
